Consider six compounds from patent publication US12723063B2, “GIPR-agonist compounds” (Eli Lilly and Company, priority 2019, dated 2026).

What all share (assay): cAMP functional assay (HTRF) in HEK293 cells in presence of 0.1% casein
What all share (assay type): cell-based

For assay [1], the target named is T1, human glucagon receptor (GcgR) (Homo sapiens, UniProt P47871).
T1 construct: expressed in transfected cells; host or cells: HEK293
The conditions noted are these: HEK293 cells expressing human GcgR, geometric mean, read-out: hGcgR cAMP Rel EC50 nM (SEM, n).

In assay [2] the target is T2, human glucose-dependent insulinotropic peptide receptor (GIPR) (Homo sapiens, UniProt P48546).
T2 construct: expressed in transfected cells; host or cells: HEK293
T2 sequence (P48546 22-466): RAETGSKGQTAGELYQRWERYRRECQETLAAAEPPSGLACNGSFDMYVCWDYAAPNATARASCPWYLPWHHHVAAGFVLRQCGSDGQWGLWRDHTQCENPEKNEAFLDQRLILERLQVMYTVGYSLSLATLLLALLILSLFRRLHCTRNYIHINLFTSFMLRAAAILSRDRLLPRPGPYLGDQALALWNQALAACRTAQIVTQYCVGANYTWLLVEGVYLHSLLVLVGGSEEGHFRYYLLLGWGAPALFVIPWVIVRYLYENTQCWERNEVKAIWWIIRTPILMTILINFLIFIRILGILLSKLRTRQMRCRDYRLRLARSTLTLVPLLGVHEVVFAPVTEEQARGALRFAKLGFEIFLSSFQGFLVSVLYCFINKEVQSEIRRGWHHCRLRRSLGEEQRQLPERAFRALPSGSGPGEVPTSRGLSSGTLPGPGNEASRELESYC
The conditions noted are these: HEK293 cells expressing human GIPR, geometric mean, read-out: hGIPR cAMP Rel EC50 nM (SEM, n).

For assay [3], the target named is T3, human GLP-1 receptor (GLP-1R) (Homo sapiens, UniProt P43220).
T3 construct: expressed in transfected cells; host or cells: HEK293
T3 sequence (P43220 24-463): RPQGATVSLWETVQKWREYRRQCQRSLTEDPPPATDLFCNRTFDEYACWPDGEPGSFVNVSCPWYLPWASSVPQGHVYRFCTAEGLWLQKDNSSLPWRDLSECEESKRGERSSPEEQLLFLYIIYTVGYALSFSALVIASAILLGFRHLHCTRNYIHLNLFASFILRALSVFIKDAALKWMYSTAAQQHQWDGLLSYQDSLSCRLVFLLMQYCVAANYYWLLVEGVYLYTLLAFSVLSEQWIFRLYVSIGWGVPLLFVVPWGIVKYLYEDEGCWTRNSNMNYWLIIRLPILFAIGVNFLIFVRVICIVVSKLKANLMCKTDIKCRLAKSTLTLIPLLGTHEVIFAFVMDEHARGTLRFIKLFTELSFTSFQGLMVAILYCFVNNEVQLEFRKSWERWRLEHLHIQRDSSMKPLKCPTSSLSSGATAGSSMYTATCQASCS
The conditions noted are these: HEK293 cells expressing human GLP-1R, geometric mean, read-out: hGLP1R cAMP Rel EC50 nM (SEM, n).

Each structure is given as a SMILES string. *1 amine or outer side, *2 acyl side, *3 side chain or, on linkers, in order; H or OH if unused. Where a SMILES comes first, the peptide text is derived from it. Side-chain parts run from the residue outwards. [ ]: non-standard residue; d: D form. The star is where a group is joined. C20 diacid = O=C(O)CCCCCCCCCCCCCCCCCCC(=O)*; αMePhe(2-F) = C[C@](N)(Cc1ccccc1F)C(=O)O; γGlu = O=C(O)[C@H](CCC(=O)[*:2])N[*:1]; αMeF = C[C@](N)(Cc1ccccc1)C(=O)O; 4Pal = N[C@@H](Cc1ccncc1)C(=O)O; αMeL = CC(C)C[C@](C)(N)C(=O)O; AEEA = NCCOCCOCC(=O)O; Aib = CC(C)(N)C(=O)O A value given as a limit tells only on which side of the number the result lay.

T1 sequence (P47871 26-477): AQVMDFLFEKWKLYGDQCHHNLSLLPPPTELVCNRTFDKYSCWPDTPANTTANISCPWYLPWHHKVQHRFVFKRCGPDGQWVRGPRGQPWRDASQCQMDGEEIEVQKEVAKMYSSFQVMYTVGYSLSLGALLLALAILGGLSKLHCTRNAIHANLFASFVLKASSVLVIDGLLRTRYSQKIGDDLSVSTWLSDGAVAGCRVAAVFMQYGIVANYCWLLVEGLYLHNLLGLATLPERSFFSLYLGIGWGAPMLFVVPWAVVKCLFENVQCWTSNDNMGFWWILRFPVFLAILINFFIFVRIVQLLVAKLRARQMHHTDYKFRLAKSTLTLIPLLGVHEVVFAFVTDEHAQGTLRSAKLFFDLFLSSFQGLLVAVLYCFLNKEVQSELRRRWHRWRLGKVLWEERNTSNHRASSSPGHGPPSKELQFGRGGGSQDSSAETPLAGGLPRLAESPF

What is called EC50 is the concentration needed to bring the measured effect to its halfway point. Take `CC[C@H](C)[C@H](NC(=O)[C@H](CO)NC(=O)[C@H](Cc1ccc(O)cc1)NC(=O)[C@H](CC(=O)O)NC(=O)[C@H](CO)NC(=O)[C@@H](NC(=O)[C@](C)(Cc1ccccc1F)NC(=O)[C@@H](NC(=O)CNC(=O)[C@H](CCC(=O)O)NC(=O)C(C)(C)NC(=O)[C@@H](N)Cc1ccc(O)cc1)[C@@H](C)O)[C@@H](C)CC)C(=O)N[C@@H](C)C(=O)N[C@@H](CC(C)C)C(=O)N[C@@H](CC(=O)O)C(=O)N[C@@H](CCCCN)C(=O)N[C@H](C(=O)N[C@@H](Cc1c[nH]cn1)C(=O)N[C@@H](CCC(N)=O)C(=O)NC(C)(C)C(=O)N[C@@H](CCC(=O)O)C(=O)N[C@@H](Cc1ccccc1)C(=O)N[C@H](C(=O)N[C@@H](CC(N)=O)C(=O)N[C@@H](Cc1ccc(O)cc1)C(=O)N[C@@H](CCCCNC(=O)COCCOCCNC(=O)COCCOCCNC(=O)CC[C@H](NC(=O)CCCCCCCCCCCCCCCCCCC(=O)O)C(=O)O)C(=O)N[C@@H](CC(C)C)C(=O)N[C@@H](CCC(=O)O)C(=O)NCC(=O)NCC(=O)N1CCC[C@H]1C(=O)N[C@@H](CO)C(=O)N[C@@H](CO)C(=O)NCC(=O)N[C@@H](C)C(=O)N1CCC[C@H]1C(=O)N1CCC[C@H]1C(=O)N1CCC[C@H]1C(=O)N[C@@H](CO)C(N)=O)C(C)C)[C@@H](C)CC` [Example 95] (H-Y[Aib]EGT[αMePhe(2-F)]ISDYSIALDKIHQ[Aib]EFVNYK([AEEA-AEEA-γGlu-C20 diacid])LEGGPSSGAPPPS-NH2): the EC50 in assay [1] is greater than 5000 nM; in assay [2], 0.0272 nM; in assay [3], greater than 5000 nM.

As to `CC[C@H](C)[C@H](NC(=O)[C@H](CO)NC(=O)[C@H](Cc1ccc(O)cc1)NC(=O)[C@H](CC(=O)O)NC(=O)[C@H](CO)NC(=O)[C@@H](NC(=O)[C@H](Cc1ccccc1)NC(=O)[C@@H](NC(=O)CNC(=O)[C@H](CCC(=O)O)NC(=O)C(C)(C)NC(=O)[C@@H](N)Cc1ccc(O)cc1)[C@@H](C)O)[C@@H](C)CC)C(=O)N[C@@H](C)C(=O)N[C@@H](CC(C)C)C(=O)N[C@@H](CC(=O)O)C(=O)N[C@@H](CCCCN)C(=O)N[C@H](C(=O)N[C@@H](Cc1c[nH]cn1)C(=O)N[C@@H](CCC(N)=O)C(=O)NC(C)(C)C(=O)N[C@@H](CCC(=O)O)C(=O)N[C@@H](Cc1ccccc1)C(=O)N[C@H](C(=O)N[C@@H](CC(N)=O)C(=O)N[C@@H](Cc1ccc(O)cc1)C(=O)N[C@@H](CCCCNC(=O)COCCOCCNC(=O)COCCOCCNC(=O)CC[C@H](NC(=O)CCCCCCCCCCCCCCCCCCC(=O)O)C(=O)O)C(=O)N[C@@H](CC(C)C)C(=O)N[C@@H](C)C(=O)NCC(=O)NCC(=O)N1CCC[C@H]1C(=O)N[C@@H](CO)C(=O)N[C@@H](CO)C(=O)NCC(=O)N[C@@H](C)C(=O)N1CCC[C@H]1C(=O)N1CCC[C@H]1C(=O)N1CCC[C@H]1C(=O)N[C@@H](CO)C(N)=O)C(C)C)[C@@H](C)CC` [Example 96] (H-Y[Aib]EGTFISDYSIALDKIHQ[Aib]EFVNYK([AEEA-AEEA-γGlu-C20 diacid])LAGGPSSGAPPPS-NH2), the concentration giving a half-maximal response (EC50) in assay [1] is greater than 5000 nM; in assay [2], 0.0251 nM; in assay [3], greater than 5000 nM.

As to `CC[C@H](C)[C@H](NC(=O)[C@H](CO)NC(=O)[C@H](Cc1ccc(O)cc1)NC(=O)[C@H](CC(=O)O)NC(=O)[C@H](CO)NC(=O)[C@@H](NC(=O)[C@](C)(Cc1ccccc1)NC(=O)[C@@H](NC(=O)CNC(=O)[C@H](CCC(=O)O)NC(=O)C(C)(C)NC(=O)[C@@H](N)Cc1ccc(O)cc1)[C@@H](C)O)[C@@H](C)CC)C(=O)N[C@@H](C)C(=O)N[C@@H](CC(C)C)C(=O)N[C@@H](CC(=O)O)C(=O)N[C@@H](CCCCN)C(=O)N[C@H](C(=O)N[C@@H](Cc1c[nH]cn1)C(=O)N[C@@H](CCC(N)=O)C(=O)NC(C)(C)C(=O)N[C@@H](CCC(=O)O)C(=O)N[C@@H](Cc1ccccc1)C(=O)N[C@H](C(=O)N[C@@H](CC(N)=O)C(=O)N[C@@H](Cc1ccc(O)cc1)C(=O)N[C@@H](CCCCNC(=O)COCCOCCNC(=O)COCCOCCNC(=O)CC[C@H](NC(=O)CCCCCCCCCCCCCCCCCCC(=O)O)C(=O)O)C(=O)N[C@@H](CC(C)C)C(=O)N[C@@H](C)C(=O)NCC(=O)NCC(=O)N1CCC[C@H]1C(=O)N[C@@H](CO)C(=O)N[C@@H](CO)C(=O)NCC(=O)N[C@@H](C)C(=O)N1CCC[C@H]1C(=O)N1CCC[C@H]1C(=O)N1CCC[C@H]1C(=O)N[C@@H](CO)C(N)=O)C(C)C)[C@@H](C)CC` [Example 97] (H-Y[Aib]EGT[αMeF]ISDYSIALDKIHQ[Aib]EFVNYK([AEEA-AEEA-γGlu-C20 diacid])LAGGPSSGAPPPS-NH2), the results for the half-maximal effective concentration (EC50) in assay [1], in assay [2] and in assay [3] were greater than 5000 nM, 0.009 nM and 2510 nM, respectively.

As for `CC[C@H](C)[C@H](NC(=O)[C@H](CO)NC(=O)[C@H](Cc1ccc(O)cc1)NC(=O)[C@H](CC(=O)O)NC(=O)[C@H](CO)NC(=O)[C@@H](NC(=O)[C@](C)(Cc1ccccc1F)NC(=O)[C@@H](NC(=O)CNC(=O)[C@H](CCC(=O)O)NC(=O)C(C)(C)NC(=O)[C@@H](N)Cc1ccc(O)cc1)[C@@H](C)O)[C@@H](C)CC)C(=O)N[C@@H](C)C(=O)N[C@@H](CC(C)C)C(=O)N[C@@H](CC(=O)O)C(=O)N[C@@H](CCCCN)C(=O)N[C@H](C(=O)N[C@@H](Cc1c[nH]cn1)C(=O)N[C@@H](CCC(N)=O)C(=O)NC(C)(C)C(=O)N[C@@H](CCC(=O)O)C(=O)N[C@@H](Cc1ccccc1)C(=O)N[C@H](C(=O)N[C@@H](CC(N)=O)C(=O)N[C@@H](Cc1ccc(O)cc1)C(=O)N[C@@H](CCCCNC(=O)COCCOCCNC(=O)COCCOCCNC(=O)CC[C@H](NC(=O)CCCCCCCCCCCCCCCCCCC(=O)O)C(=O)O)C(=O)N[C@@H](CC(C)C)C(=O)N[C@@H](C)C(=O)NCC(=O)NCC(=O)N1CCC[C@H]1C(=O)N[C@@H](CO)C(=O)N[C@@H](CO)C(=O)NCC(=O)N[C@@H](C)C(=O)N1CCC[C@H]1C(=O)N1CCC[C@H]1C(=O)N1CCC[C@H]1C(=O)N[C@@H](CO)C(N)=O)C(C)C)[C@@H](C)CC` [Example 98] (H-Y[Aib]EGT[αMePhe(2-F)]ISDYSIALDKIHQ[Aib]EFVNYK([AEEA-AEEA-γGlu-C20 diacid])LAGGPSSGAPPPS-NH2), the results for the EC50 in assay [1], in assay [2] and in assay [3] were greater than 5000 nM, 0.00718 nM and 649 nM, respectively.

For the compound `CC[C@H](C)[C@H](NC(=O)[C@H](CO)NC(=O)[C@H](Cc1ccc(O)cc1)NC(=O)[C@H](CC(=O)O)NC(=O)[C@H](CO)NC(=O)[C@@H](NC(=O)[C@](C)(Cc1ccccc1F)NC(=O)[C@@H](NC(=O)CNC(=O)[C@H](CCC(=O)O)NC(=O)C(C)(C)NC(=O)[C@@H](N)Cc1ccc(O)cc1)[C@@H](C)O)[C@@H](C)CC)C(=O)N[C@@H](C)C(=O)N[C@@H](CC(C)C)C(=O)N[C@@H](CC(=O)O)C(=O)N[C@@H](CCCCN)C(=O)N[C@H](C(=O)N[C@@H](Cc1c[nH]cn1)C(=O)N[C@@H](CCC(N)=O)C(=O)NC(C)(C)C(=O)N[C@@H](CC(=O)O)C(=O)N[C@@H](Cc1ccccc1)C(=O)N[C@H](C(=O)N[C@@H](CCC(=O)O)C(=O)N[C@@H](Cc1ccc(O)cc1)C(=O)N[C@@H](CCCCNC(=O)COCCOCCNC(=O)COCCOCCNC(=O)CC[C@H](NC(=O)CCCCCCCCCCCCCCCCCCC(=O)O)C(=O)O)C(=O)N[C@@H](CC(C)C)C(=O)N[C@@H](CCC(=O)O)C(=O)NCC(=O)NCC(=O)N1CCC[C@H]1C(=O)N[C@@H](CO)C(=O)N[C@@H](CO)C(=O)NCC(=O)N[C@@H](C)C(=O)N1CCC[C@H]1C(=O)N1CCC[C@H]1C(=O)N1CCC[C@H]1C(=O)N[C@@H](CO)C(N)=O)C(C)C)[C@@H](C)CC` [Example 99] (H-Y[Aib]EGT[αMePhe(2-F)]ISDYSIALDKIHQ[Aib]DFVEYK([AEEA-AEEA-γGlu-C20 diacid])LEGGPSSGAPPPS-NH2), the EC50 in assay [1] was greater than 5000 nM; in assay [2], 0.00454 nM; in assay [3] it was greater than 5000 nM.

For the compound `CC[C@H](C)[C@H](NC(=O)[C@H](CCCCN)NC(=O)[C@H](CC(=O)O)NC(=O)[C@H](CC(C)C)NC(=O)[C@](C)(CC(C)C)NC(=O)[C@@H](NC(=O)[C@H](CO)NC(=O)[C@H](Cc1ccc(O)cc1)NC(=O)[C@H](CC(=O)O)NC(=O)[C@H](CO)NC(=O)[C@@H](NC(=O)[C@H](Cc1ccccc1)NC(=O)[C@@H](NC(=O)CNC(=O)[C@H](CCC(=O)O)NC(=O)C(C)(C)NC(=O)[C@@H](N)Cc1ccc(O)cc1)[C@@H](C)O)[C@@H](C)CC)[C@@H](C)CC)C(=O)N[C@@H](Cc1c[nH]cn1)C(=O)N[C@@H](CCC(N)=O)C(=O)NC(C)(C)C(=O)N[C@@H](CCC(=O)O)C(=O)N[C@@H](Cc1ccccc1)C(=O)N[C@H](C(=O)N[C@@H](CCC(=O)O)C(=O)N[C@@H](Cc1ccncc1)C(=O)N[C@@H](CCCCNC(=O)COCCOCCNC(=O)COCCOCCNC(=O)CC[C@H](NC(=O)CCCCCCCCCCCCCCCCCCC(=O)O)C(=O)O)C(=O)N[C@@H](CC(C)C)C(=O)N[C@@H](CCC(=O)O)C(=O)NCC(=O)NCC(=O)N1CCC[C@H]1C(=O)N[C@@H](CO)C(=O)N[C@@H](CO)C(=O)NCC(=O)N[C@@H](C)C(=O)N1CCC[C@H]1C(=O)N1CCC[C@H]1C(=O)N1CCC[C@H]1C(=O)N[C@@H](CO)C(N)=O)C(C)C` [Example 100] (H-Y[Aib]EGTFISDYSI[αMeL]LDKIHQ[Aib]EFVE[4Pal]K([AEEA-AEEA-γGlu-C20 diacid])LEGGPSSGAPPPS-NH2), the results for the EC50 in assay [1], in assay [2] and in assay [3] were greater than 5000 nM, 0.0224 nM and greater than 5000 nM, respectively.
